Results taken from patent US20230048366A1, “COMBINATION THERAPY FOR TREATING OR PREVENTING CANCER” (4D Pharma Research Limited, priority 2018, published 2023).

Columns and labels:
immature dendritic cells = test: Cytokine production in immature dendritic cells; format: cell-based; settings: MRX518 10^7/ml, LPS 100 ng/ml
Experimental: This study tested the effect of the bacterial strain MRX518 alone and in combination with lipopolysaccharide (LPS) on cytokine production in immature dendritic cells.
A monocyte population was isolated from peripheral blood mononuclear cells (PBMCs). The monocyte cells were subsequently differentiated into immature dendritic cells. The immature dendritic cells were plated out at 200,000 cells/well and incubated with MRX518 at a final concentration of 10^7/ml, with the optional addition of LPS at a final concentration of 100 ng/ml. The negative control involved incubating the cells with RPMI media alone and positive controls incubated the cells with LPS at a final concentration of 100 ng/ml. The cytokine content of the cells was then analysed.

RENCA tumour cells = test: Antitumor activity, RENCA model (tumour volume); format: in vivo, mouse; settings: D18 and D22, compared to untreated and vehicle groups, FIG. 3B
Experimental: Treatment schedule—The start of first dosing was considered as D0. On D0, non-engrafted mice were randomized according to their individual body weight into groups of 9 mice using Vivo Manager® software (Biosystemes, Couternon, France). On D0, the mice received vehicle (culture medium) or bacterial strain (2×10^8 in 200 μL, PO). On D14, all mice were engrafted with RENCA tumour cells injected SC into the ventral surface of the lower flank as described below. Treatment with anti-CTLA-4 (10 mg/kg, IP) and anti-PDL1 (clone 10F.9G2, 10 mg/kg) was initiated when tumours reached a volume of 50-70 mm3.
Orthotopic induction of RENCA tumor cells in animals by SC injection—On D14, one million (1×10^6) RENCA tumor cells in 50 μL RPMI 1640 medium were transplanted via SC injection into the ventral surface of the lower flank of mice.
Euthanasia—Each mouse was euthanized when it reached a humane endpoint as described in section below, or after a maximum of 6 weeks post start of dosing.
Evaluation of tumour burden at euthanasia—At the time of termination, tumours were collected and their volume evaluated.
Clinical monitoring—The length and width of the tumour was measured twice a week with callipers and the volume of the tumour was estimated by this formula [52]: […]

[1] = compared to the negative control, FIGS. 4a-d

Compound | level of IL-1β (immature dendritic cells; FIGS. 4b, 4d) | level of IL-6 (immature dendritic cells; [1]) | level of TNF-α (immature dendritic cells; [1]) | tumour size (RENCA tumour cells)
lipopolysaccharide [LPS] | not IL-1β | increase | increase | –
CC(=O)O[C@H]1C(=O)[C@@]2(C)[C@H]([C@H](OC(=O)c3ccccc3)[C@]3(O)C[C@H](OC(=O)[C@H](O)[C@@H](NC(=O)c4ccccc4)c4ccccc4)C(C)=C1C3(C)C)[C@]1(OC(C)=O)CO[C@@H]1C[C@@H]2O [Paclitaxel] | – | – | – | (almost) complete reduction in tumour size
